The results in this text go back to patent US20220298186A1, “BIARYL DIALKYL PHOSPHINE OXIDE FPR2 AGONISTS” (BRISTOL-MYERS SQUIBB COMPANY, priority 2019, published 2022).

A word on the EC50: it is the midpoint of the concentration-response curve.

The target of one assay is T1, human FPR1 receptors (Homo sapiens, UniProt P21462).
T1 sequence (P21462 1-350): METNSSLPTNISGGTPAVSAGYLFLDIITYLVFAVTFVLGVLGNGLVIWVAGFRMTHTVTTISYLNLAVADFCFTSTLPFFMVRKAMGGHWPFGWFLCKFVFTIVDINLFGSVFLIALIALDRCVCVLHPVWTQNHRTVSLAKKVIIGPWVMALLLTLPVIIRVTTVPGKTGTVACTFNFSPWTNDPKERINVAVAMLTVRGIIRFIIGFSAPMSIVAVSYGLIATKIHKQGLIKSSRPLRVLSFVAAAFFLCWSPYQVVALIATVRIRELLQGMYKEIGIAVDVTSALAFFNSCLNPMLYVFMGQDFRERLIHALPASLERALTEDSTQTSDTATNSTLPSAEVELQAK
Briefly: FPR1 cyclic adenosine monophosphate (cAMP) assay. The format is cell-based. The conditions noted are these: CHO cells overexpressing human FPR1; forskolin 10 μM, IBMX 200 μM; 30 min at rt; inhibition of cAMP production (HTRF); read-out: hFPR1 cAMP EC50. The text has this: (§1) N-formyl peptide receptors (FPRs) are a family of chemo attractant receptors that facilitate leukocyte response during inflammation. FPRs belong to the seven-transmembrane G protein-coupled receptor superfamily and are linked to inhibitory G-proteins (Gi). Three family members (FPR1, FPR2 and FPR3) have been identified in humans and are predominantly found in myeloid cells with varied distribution and have also been reported in multiple organs and tissues. After agonist binding, the FPRs activate a multitude of physiological pathways, such as intra cellular signaling transduction, Ca^2+ mobilization and transcription. The family interacts with a diverse set of ligands that includes proteins, polypeptides and fatty acid metabolites which activate both pro-inflammatory and pro-resolution downstream responses. FPR2 and FPR1 Cyclic Adenosine Monophosphate (cAMP) Assays were used to measure the activity of the compounds in this patent.
(§2) FPR2 and FPR1 Cyclic Adenosine Monophosphate (cAMP) Assays. A mixture of forskolin (5 μM final for FPR2 or 10 μM final for FPR1) and IBMX (200 μM final) were added to 384-well Proxiplates (Perkin-Elmer) pre-dotted with test compounds in DMSO (1% final) at final concentrations in the range of 0.020 nM to 100 μM. Chinese Hamster Ovary cells (CHO) overexpressing human FPR1 or human FPR2 receptors were cultured in F-12 (Ham's) medium supplemented with 10% qualified FBS, 250 μg/mL zeocin and 300 μg/mL hygromycin (Life Technologies). Reactions were initiated by adding 2,000 human FPR2 cells per well or 4,000 human FPR1 cells per well in Dulbecco's PBS (with calcium and magnesium) (Life Technologies) supplemented with 0.1% BSA (Perkin-Elmer). The reaction mixtures were incubated for 30 min at rt. The level of intracellular cAMP was determined using the HTRF HiRange cAMP assay reagent kit (Cisbio) according to manufacturer's instruction. Solutions of cryptate conjugated anti-cAMP and d2 flurorophore-labelled cAMP were made in a supplied lysis buffer separately. Upon completion of the reaction, the cells were lysed with equal volume of the d2-cAMP solution and anti-cAMP solution. After a 1-h rt incubation, time-resolved fluorescence intensity was measured using the Envision (Perkin-Elmer) at 400 nm excitation and dual emission at 590 nm and 665 nm. A calibration curve was constructed with an external cAMP standard at concentrations ranging from 1 μM to 0.1 μM by plotting the fluorescent intensity ratio from 665 nm emission to the intensity from the 590 nm emission against cAMP concentrations. The potency and activity of a compound to inhibit cAMP production was then determined by fitting to a 4-parametric logistic equation from a plot of cAMP level versus compound concentrations.
(§3) The examples disclosed below were tested in the FPR2 and FPR1 cAMP assay described above and found having FPR2 and/or FPR1 agonist activity. Table 1 below lists EC50 values in the FPR2 and FPR1 cAMP assays measured for the following examples.
A general note: Cyclic AMP is a second messenger, typically raised through Gs and lowered through Gi signalling.

The target in the next assay is T2, human FPR2 receptors (Homo sapiens, UniProt P25090).
T2 sequence (P25090 1-351): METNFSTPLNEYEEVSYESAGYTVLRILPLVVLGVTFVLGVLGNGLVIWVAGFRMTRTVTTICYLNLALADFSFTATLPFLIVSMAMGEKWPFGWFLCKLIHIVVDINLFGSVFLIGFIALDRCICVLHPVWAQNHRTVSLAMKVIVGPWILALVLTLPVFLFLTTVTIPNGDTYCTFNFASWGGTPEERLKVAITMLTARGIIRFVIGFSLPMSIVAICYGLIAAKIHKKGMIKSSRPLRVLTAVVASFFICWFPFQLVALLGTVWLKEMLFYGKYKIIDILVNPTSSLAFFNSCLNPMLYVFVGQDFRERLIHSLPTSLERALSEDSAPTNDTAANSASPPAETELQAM
Briefly: FPR2 cyclic adenosine monophosphate (cAMP) assay. To be noted: CHO cells overexpressing human FPR2; forskolin 5 μM, IBMX 200 μM; 30 min at rt; inhibition of cAMP production (HTRF); read-out: hFPR2 cAMP2 EC50. It is filed as cell-based.
Description: as §1, §2, §3

Consider `CP(C)(=O)c1ccccc1-c1ccc(N2CCC[C@@H](NC(=O)Nc3ccc(Cl)cc3F)C2=O)c(F)c1F` [Example 1, (R)-1-(4-Chloro-2-fluorophenyl)-3-(1-(2′-(dimethylphosphoryl)-2,3-difluoro-[1,1′-biphenyl]-4-yl)-2-oxopiperidin-3-yl)urea], for which the EC50 at human FPR1 receptors came to 110 nM; at human FPR2 receptors, 0.12 nM.

As for `CP(C)(=O)c1ccccc1-c1ccc(N2CCC[C@@H](NC(=O)Nc3ccc(C(F)(F)F)cc3F)C2=O)c(F)c1F` [Example 2, 3-[(3R)-1-[2′-(Dimethylphosphoryl)-2,3-difluoro-[1,1′-biphenyl]-4-yl]-2-oxopiperidin-3-yl]-1-[2-fluoro-4-(trifluoromethyl)phenyl] urea], the results for the EC50 on human FPR1 receptors and at human FPR2 receptors were 300 nM and 0.18 nM, respectively.

On to `CCP(=O)(CC)c1ccccc1-c1cc(F)c(N2CCC[C@@H](NC(=O)Nc3ccc(Cl)cc3F)C2=O)c(F)c1` [Example 3, 1-(4-Chloro-2-fluorophenyl)-3-[(3R)-1-[2′-(diethylphosphoryl)-3,5-difluoro-[1,1′-biphenyl]-4-yl]-2-oxopiperidin-3-yl]urea], for which the figures for the EC50 on human FPR1 receptors and on human FPR2 receptors were 420 nM and 0.17 nM, respectively.

Turning to `CP(C)(=O)c1ccccc1-c1ccc(N2CCC[C@@H](NC(=O)Nc3ncc(Cl)cc3F)C2=O)c(C2CC2)c1` [Example 4, 1-(5-Chloro-3-fluoropyridin-2-yl)-3-[(3R)-1-[3-cyclopropyl-2′-(dimethylphosphoryl)-[1,1′-biphenyl]-4-yl]-2-oxopiperidin-3-yl]urea], the 50% effective concentration (EC50) came to 7.1 nM at human FPR1 receptors and 0.63 nM on human FPR2 receptors.

`CP(C)(=O)c1ccccc1-c1ccc(N2CCC[C@@H](NC(=O)Nc3ccc(Cl)cc3F)C2=O)c(C2CC2)c1` [Example 5, 1-(4-Chloro-2-fluorophenyl)-3-[(3R)-1-[3-cyclopropyl-2′-(dimethylphosphoryl)-[1,1′-biphenyl]-4-yl]-2-oxopiperidin-3-yl]urea]: the EC50 came to 17 nM on human FPR1 receptors and 0.76 nM on human FPR2 receptors.

As for `COc1ccc(NC(=O)N[C@@H]2CCCN(c3ccc(-c4ccccc4P(C)(C)=O)c(F)c3F)C2=O)c(F)c1` [Example 6, 3-[(3R)-1-[2′-(Dimethylphosphoryl)-2,3-difluoro-[1,1′-biphenyl]-4-yl]-2-oxopiperidin-3-yl]-1-(2-fluoro-4-methoxyphenyl)urea], the results for the EC50 on human FPR1 receptors and at human FPR2 receptors were 430 nM and 0.86 nM, respectively.

Regarding `CP(C)(=O)c1ccccc1-c1cc(F)c(N2CCC[C@@H](NC(=O)Nc3ccc(Cl)cc3F)C2=O)c(F)c1` [Example 7, 1-(4-Chloro-2-fluorophenyl)-3-[(3R)-1-[2′-(dimethylphosphoryl)-3,5-difluoro-[1,1′-biphenyl]-4-yl]-2-oxopiperidin-3-yl]urea], the EC50 on human FPR1 receptors came out at 2600 nM; on human FPR2 receptors it was 0.79 nM.

For the compound `CP(C)(=O)c1ccccc1-c1ccc(N2CCC[C@@H](NC(=O)Nc3cnc(Cl)cn3)C2=O)c(F)c1F` [Example 8, 1-(5-Chloropyrazin-2-yl)-3-[(3R)-1-[2′-(dimethylphosphoryl)-2,3-difluoro-[1,1′-biphenyl]-4-yl]-2-oxopiperidin-3-yl]urea], the EC50 at human FPR1 receptors was found to be 1100 nM; at human FPR2 receptors, 1.5 nM.

With `CP(C)(=O)c1ccccc1-c1ccc(N2CCC[C@@H](NC(=O)Nc3ncc(Cl)cc3F)C2=O)c(F)c1F` [Example 9, 1-(5-Chloro-3-fluoropyridin-2-yl)-3-[(3R)-1-[2′-(dimethylphosphoryl)-2,3-difluoro-[1,1′-biphenyl]-4-yl]-2-oxopiperidin-3-yl]urea], the half-maximal effective concentration (EC50) at human FPR1 receptors worked out at 1400 nM; at human FPR2 receptors it was 2.2 nM.

`CP(C)(=O)c1ccccc1-c1ccc(N2CCC[C@@H](NC(=O)Nc3ccc(OC(F)(F)F)cc3)C2=O)c(F)c1F` [Example 10, 3-[(3R)-1-[2′-(Dimethylphosphoryl)-2,3-difluoro-[1,1′-biphenyl]-4-yl]-2-oxopiperidin-3-yl]-1-[4-(trifluoromethoxy)phenyl] urea]: the EC50 worked out at 370 nM at human FPR1 receptors and 1.4 nM on human FPR2 receptors.

With `CP(C)(=O)c1ccccc1-c1cc(F)c(N2CCC[C@@H](NC(=O)Nc3ccc(C(F)(F)F)cc3F)C2=O)c(F)c1` [Example 11, 3-[(3R)-1-[2′-(Dimethylphosphoryl)-3,5-difluoro-[1,1′-biphenyl]-4-yl]-2-oxopiperidin-3-yl]-1-[2-fluoro-4-(trifluoromethyl)phenyl] urea], the EC50 on human FPR1 receptors was determined as 1700 nM; on human FPR2 receptors it was 2.6 nM.

Take `CP(C)(=O)c1ccccc1-c1ccc(N2CCC[C@@H](NC(=O)Nc3ccc(C(F)(F)F)cn3)C2=O)c(F)c1F` [Example 12, 3-[(3R)-1-[2′-(Dimethylphosphoryl)-2,3-difluoro-[1,1′-biphenyl]-4-yl]-2-oxopiperidin-3-yl]-1-[5-(trifluoromethyl)pyridin-2-yl]urea]: the values for the EC50 at human FPR1 receptors and on human FPR2 receptors were 1300 nM and 2.7 nM, respectively.

For the compound `COc1ccc(NC(=O)N[C@@H]2CCCN(c3c(F)cc(-c4ccccc4P(C)(C)=O)cc3F)C2=O)cc1` [Example 13, 3-[(3R)-1-[2′-(Dimethylphosphoryl)-3,5-difluoro-[1,1′-biphenyl]-4-yl]-2-oxopiperidin-3-yl]-1-(4-methoxyphenyl)urea], the concentration giving a half-maximal response (EC50) at human FPR1 receptors worked out at 2400 nM; at human FPR2 receptors it was 5.6 nM.

As to `CCP(=O)(CC)c1ccccc1-c1ccc(N2CCC[C@@H](NC(=O)Nc3ncc(Cl)cc3F)C2=O)c(F)c1F` [Example 14, 1-(5-Chloro-3-fluoropyridin-2-yl)-3-[(3R)-1-[2′-(diethylphosphoryl)-2,3-difluoro-[1,1′-biphenyl]-4-yl]-2-oxopiperidin-3-yl]urea], the EC50 at human FPR1 receptors is 1500 nM; at human FPR2 receptors, 6 nM.

In the case of `CCP(=O)(CC)c1ccccc1-c1cc(F)c(N2CCC[C@@H](NC(=O)Nc3ncc(Cl)cc3F)C2=O)c(F)c1` [Example 15, 1-(5-Chloro-3-fluoropyridin-2-yl)-3-[(3R)-1-[2′-(diethylphosphoryl)-3,5-difluoro-[1,1′-biphenyl]-4-yl]-2-oxopiperidin-3-yl]urea], the figures for the concentration for a half-maximal effect (EC50) on human FPR1 receptors and at human FPR2 receptors were 7000 nM and 8.3 nM, respectively.

On to `CP(C)(=O)c1ccccc1-c1ccc(N2CCC[C@@H](NC(=O)Nc3ccc(OC(F)(F)F)cc3F)C2=O)c(F)c1F` [Example 16, 3-[(3R)-1-[2′-(Dimethylphosphoryl)-2,3-difluoro-[1,1′-biphenyl]-4-yl]-2-oxopiperidin-3-yl]-1-[2-fluoro-4-(trifluoromethoxy)phenyl] urea], for which the values for the EC50 at human FPR1 receptors and at human FPR2 receptors were 1800 nM and 8.4 nM, respectively.

`CP(C)(=O)c1ccccc1-c1cc(F)c(N2CCC[C@@H](NC(=O)Nc3cnc(Cl)cn3)C2=O)c(F)c1` [Example 17, 1-(5-Chloropyrazin-2-yl)-3-[(3R)-1-[2′-(dimethylphosphoryl)-3,5-difluoro-[1,1′-biphenyl]-4-yl]-2-oxopiperidin-3-yl]urea]: the figures for the EC50 at human FPR1 receptors and at human FPR2 receptors were more than 10000 nM and 8.6 nM, respectively.

On to `CP(C)(=O)c1ccccc1-c1ccc(N2CCC[C@@H](NC(=O)Nc3ncc(C(F)(F)F)cc3F)C2=O)c(F)c1F` [Example 18], for which the EC50 at human FPR1 receptors was more than 10000 nM; on human FPR2 receptors it was 11.6 nM.
